Calls of active or inactive are those of the source.
Legend:
[1] = cytotoxicity in HPDE-C7 cells, cell-based, fluorescence, HTS (AID 430); format: functional; settings: Homo sapiens
[2] = cytotoxicity in KRAS-transformed pancreatic duct cells, primary screen, cell-based, fluorescence, HTS (AID 431); format: functional; settings: Homo sapiens;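 also: cell line used: HPDE-C7K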
[3] = target: T1, Mannose-6-phosphate isomerase (Homo sapiens, UniProt P34949); assay: inhibitors of human PMI, primary screen, biochemical, fluorescence intensity, coupled assay (AID 1209)
T1 sequence (P34949 whole entry): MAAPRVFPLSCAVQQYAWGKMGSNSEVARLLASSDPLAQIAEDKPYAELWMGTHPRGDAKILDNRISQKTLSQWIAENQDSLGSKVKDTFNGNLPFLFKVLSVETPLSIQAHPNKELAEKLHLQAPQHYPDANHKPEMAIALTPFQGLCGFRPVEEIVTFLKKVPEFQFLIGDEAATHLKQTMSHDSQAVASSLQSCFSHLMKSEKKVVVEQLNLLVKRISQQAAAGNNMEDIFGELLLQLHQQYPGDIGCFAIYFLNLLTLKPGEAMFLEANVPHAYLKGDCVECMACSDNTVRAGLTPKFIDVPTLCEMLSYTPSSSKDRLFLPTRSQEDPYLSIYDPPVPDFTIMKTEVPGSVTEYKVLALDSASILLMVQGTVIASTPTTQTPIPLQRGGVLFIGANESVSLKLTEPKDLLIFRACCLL

[4] = target: T1, Mannose-6-phosphate isomerase; assay: human PMI inhibitors, high substrate, primary screen, biochemical, fluorescence intensity, high mannose 6-phosphate (AID 1220)
[5] = target: T2, Replicative DNA helicase DnaB (Mycobacterium tuberculosis, UniProt P9WMR3); assay: DnaB intein splicing inhibitors, dose response, biochemical, cell-free fluorescence (AID 449749); format: functional
T2 sequence (P9WMR3 whole entry): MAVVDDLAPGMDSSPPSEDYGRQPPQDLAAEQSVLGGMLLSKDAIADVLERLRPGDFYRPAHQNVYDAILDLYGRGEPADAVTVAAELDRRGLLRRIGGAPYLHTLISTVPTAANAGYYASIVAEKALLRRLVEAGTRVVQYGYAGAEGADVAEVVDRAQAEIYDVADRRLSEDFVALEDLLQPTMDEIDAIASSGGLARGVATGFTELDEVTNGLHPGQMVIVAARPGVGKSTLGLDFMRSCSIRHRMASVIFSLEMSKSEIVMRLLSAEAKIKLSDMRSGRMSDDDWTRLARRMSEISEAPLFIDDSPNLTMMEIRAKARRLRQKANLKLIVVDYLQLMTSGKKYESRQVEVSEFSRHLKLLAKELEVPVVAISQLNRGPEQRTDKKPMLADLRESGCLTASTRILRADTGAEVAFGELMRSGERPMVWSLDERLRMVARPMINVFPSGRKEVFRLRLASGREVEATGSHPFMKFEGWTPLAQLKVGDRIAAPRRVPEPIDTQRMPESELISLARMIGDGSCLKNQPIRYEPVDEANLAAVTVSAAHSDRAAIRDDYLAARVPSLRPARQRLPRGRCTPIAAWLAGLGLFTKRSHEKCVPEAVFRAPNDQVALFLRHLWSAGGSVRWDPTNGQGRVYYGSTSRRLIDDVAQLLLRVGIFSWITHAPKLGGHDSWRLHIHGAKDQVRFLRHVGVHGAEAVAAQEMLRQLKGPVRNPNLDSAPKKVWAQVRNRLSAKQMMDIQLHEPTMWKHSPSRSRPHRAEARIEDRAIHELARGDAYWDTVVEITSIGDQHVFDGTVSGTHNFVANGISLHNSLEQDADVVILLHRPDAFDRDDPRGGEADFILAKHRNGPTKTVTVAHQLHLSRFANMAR

Protein RecA = target: T3, Protein RecA (Mycobacterium tuberculosis, UniProt P9WHJ3); assay: Fluorescence Cell-Free Homogeneous Dose Retest to Identify Inhibitors of RecA-Intein Splicing Activity. [Related pubchem assays (depositor defined):AID2097, AID2223, AID489010, AID492950]; format: functional
T3 sequence (P9WHJ3 whole entry): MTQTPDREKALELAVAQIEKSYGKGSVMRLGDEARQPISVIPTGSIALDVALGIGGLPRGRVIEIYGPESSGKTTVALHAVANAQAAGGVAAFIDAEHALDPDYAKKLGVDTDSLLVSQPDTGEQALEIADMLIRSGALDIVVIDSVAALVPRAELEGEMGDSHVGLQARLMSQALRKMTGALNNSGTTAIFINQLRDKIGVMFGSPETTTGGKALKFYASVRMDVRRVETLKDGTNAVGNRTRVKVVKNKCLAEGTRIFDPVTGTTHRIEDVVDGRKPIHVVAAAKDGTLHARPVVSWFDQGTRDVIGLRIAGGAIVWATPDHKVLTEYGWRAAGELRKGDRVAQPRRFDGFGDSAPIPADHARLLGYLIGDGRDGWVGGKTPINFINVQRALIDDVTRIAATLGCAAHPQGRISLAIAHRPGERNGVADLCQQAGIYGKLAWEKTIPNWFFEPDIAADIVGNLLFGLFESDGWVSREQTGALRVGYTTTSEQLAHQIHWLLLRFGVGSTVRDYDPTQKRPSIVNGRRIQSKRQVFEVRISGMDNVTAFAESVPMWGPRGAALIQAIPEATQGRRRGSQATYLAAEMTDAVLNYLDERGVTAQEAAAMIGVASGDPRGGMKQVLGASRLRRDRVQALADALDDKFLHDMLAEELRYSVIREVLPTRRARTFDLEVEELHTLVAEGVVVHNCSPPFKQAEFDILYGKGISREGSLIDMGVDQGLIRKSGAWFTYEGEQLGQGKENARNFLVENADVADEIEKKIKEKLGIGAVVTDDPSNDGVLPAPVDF

Genome polyprotein = Genome polyprotein (dengue virus type 2, UniProt P29990); assay: Dengue-2 NS5 methyltransferase inhibitors, primary screen, biochemical, confirmation dose response (AID 588689); format: functional
[6] = growth suppression of PTEN-null colon cells, dose response, cell-based, HCT116 PTEN knockout (AID 1047); format: functional;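 also: HCT116 colon tumor cells with PTEN knocked out; cells exposed to compound for 60 hours before readout; potency for loss of cell viability measured by luminescence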
[7] = growth suppression of beta-catenin-knockout colon cells, dose response, cell-based, HCT116, human colon tumor (AID 1045); format: functional;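 also: HCT116 colon tumor cells with beta catenin knocked out; cells exposed to compound for 60 hours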
[8] = target: T4, Ubiquitin-conjugating enzyme E2 N (Homo sapiens, UniProt P61088); format: functional;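 also: Dose-response confirmation in a TR-FRET assay detecting UBC13-driven polyubiquitin chain formation, inhibition measured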
T4 sequence (P61088 whole entry): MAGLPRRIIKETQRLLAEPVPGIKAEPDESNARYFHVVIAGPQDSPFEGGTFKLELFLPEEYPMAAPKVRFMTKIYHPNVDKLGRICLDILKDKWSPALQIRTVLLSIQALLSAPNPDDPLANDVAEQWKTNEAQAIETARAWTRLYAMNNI

[9] = Concentration-dependent survival of SW480 colon cancer line, luminescence detection with CellTiter-Glo, half-maximal inhibitory concentration (AID 1117338); format: functional
[10] = RKO cell viability reduction, dose response, CellTiter-Glo luminescence (AID 1117322); format: functional
[11] = cytotoxicity toward HCT116 cells – cell-based, CellTiter-Glo luminescence, IC50, dose response (AID 1117332); format: functional; settings: HCT-116
[12] = SNU-C1 cell viability reduction, dose response, CellTiter-Glo luminescence (AID 1117323); format: functional, cell-based
[13] = half-maximal inhibitory concentration for glucagon-like peptide-1 release, STC-1 cell line, dose-response (AID 1117345); format: functional, cell-based
[14] = cytotoxicity toward Colo320 cells – cell-based, CellTiter-Glo luminescence, IC50, dose response (AID 1117334); format: functional; settings: COLO 320
[15] = cytotoxicity toward HT-29 cells – cell-based, CellTiter-Glo luminescence, IC50, dose response (AID 1117330); format: functional
[16] = CellTiter-Glo luminescent dose response of DLD-1 viability loss (AID 1117352); format: functional
[17] = HCT116 cell viability decrease, GSK3B pretreatment – CellTiter-Glo, IC50, dose response (AID 1117339); format: functional; settings: HCT-116
[18] = Glucagon-like peptide 1 release potency, NCI-H716 cell line, dose-response, half-maximal inhibitory concentration (AID 1117344); format: functional, cell-based
Vero [19] = assay: host cell cytotoxicity of antiviral hits, dose response, cytotoxicity control for West Nile virus antiviral project, secondary assay (AID 1650); format: functional; settings: Chlorocebus sabaeus
Vero [20] = assay: cells; format: functional; settings: Chlorocebus sabaeus
[21] = Luminescence Cell-Based Dose Response to Identify Activators of 5'UTR Stem-Loop Driven Prion Protein mRNA Translation in H4-C Neuroglioblastoma Cells. [Related pubchem assays: 1829 (Project Summary), 1814 (Primary HTS)]; format: functional
[22] = Luminescence Cell-Based Dose Confirmation HTS to Identify Activators of 5'UTR Stem-Loop Driven Alpha-Synuclein mRNA Translation in H4 Neuroglioblastoma Cells. [Related pubchem assays: 1829 (Project Summary), 1814 (Primary HTS)]; format: functional
[23] = Luminescence Cell-Based Dose Response HTS to Identify Activators of Luciferase Translation or Activity in H4 […] Cells. [Related pubchem assays: 1829 (Project Summary), 1814 (Primary HTS)]; format: functional
H4 = assay: Luminescence Cell-Based Dose Response HTS to Identify Activators of 5'UTR Stem-Loop Driven Prion Protein mRNA Translation in H4 Neuroglioblastoma Cells. [Related pubchem assays: 1829 (Project Summary), 1814 (Primary HTS)]; format: functional; settings: Homo sapiens
[24] = Luminescence Cell-Based Dose Response to Identify Activators of Luciferase Translation or Activity in H4-C Neuroglioblastoma Cells. [Related pubchem assays: 1829 (Project Summary), 1814 (Primary HTS)]; format: functional
[25] = Luminescence Cell-Based Dose Confirmation to Identify Activators of 5'UTR Stem-Loop Driven Alpha-Synuclein mRNA Translation in H4 Neuroglioblastoma Cells. [Related pubchem assays: 1829 (Project Summary), 1814 (Primary HTS)]; format: functional
[26] = target: Neuropeptide Y receptor type 1 (Homo sapiens, UniProt P25929); format: functional;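 also: HEK293 cells with a CNG channel challenged with NPY then isoproterenol; potency as antagonist that reverses NPY suppression of cAMP signal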
[27] = inhibitors of intracellular T. cruzi replication, confirmation, NIH3T3 host cells, beta-gal luminescence (AID 2044); format: functional, cell-based;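 also: intracellular parasites grown in NIH/3T3 mouse fibroblasts as host cells; luminescent beta-galactosidase reporter signal from transgenic T. cruzi replicating inside host cells; inhibitors lower the luminescence signal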
[28] = target: Neuropeptide Y receptor type 2 (Homo sapiens, UniProt P49146); format: functional, cell-based;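 also: HEK293 cells expressing the receptor and a CNG channel; stimulus was NPY near EC95 followed by isoproterenol to raise cAMP; antagonist potency measured as restoring cAMP signal that NPY suppresses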
[29] = cytotoxicity toward NIH3T3 fibroblasts, dose response, counter-screen, cell-based, ATP luminescence, mouse fibroblasts (AID 2010); format: functional;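 also: cells exposed to compound for about 90 hours before reading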
[30] = target: RNA-editing ligase 1, mitochondrial (Trypanosoma brucei brucei, UniProt P86926); assay: TbREL1 ligase inhibitors, dose response, biochemical, fluorescence, Trypanosoma brucei (AID 1117295); format: functional
Chain of RNA-editing ligase 1, mitochondrial (P86926 whole entry): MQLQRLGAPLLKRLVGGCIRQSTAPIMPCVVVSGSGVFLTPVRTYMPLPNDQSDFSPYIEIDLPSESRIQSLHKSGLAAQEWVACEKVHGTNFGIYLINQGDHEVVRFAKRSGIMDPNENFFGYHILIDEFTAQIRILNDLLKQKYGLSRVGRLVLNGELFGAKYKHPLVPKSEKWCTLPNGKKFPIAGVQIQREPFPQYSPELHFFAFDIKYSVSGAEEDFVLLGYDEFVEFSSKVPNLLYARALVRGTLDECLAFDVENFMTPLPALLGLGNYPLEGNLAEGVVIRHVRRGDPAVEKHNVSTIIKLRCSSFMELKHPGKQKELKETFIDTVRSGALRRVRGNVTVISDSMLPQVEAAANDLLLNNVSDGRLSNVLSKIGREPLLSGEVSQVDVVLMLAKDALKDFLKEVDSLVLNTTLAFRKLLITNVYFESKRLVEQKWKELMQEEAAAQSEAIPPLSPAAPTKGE

Chain of Neuropeptide Y receptor type 2 (P49146 whole entry): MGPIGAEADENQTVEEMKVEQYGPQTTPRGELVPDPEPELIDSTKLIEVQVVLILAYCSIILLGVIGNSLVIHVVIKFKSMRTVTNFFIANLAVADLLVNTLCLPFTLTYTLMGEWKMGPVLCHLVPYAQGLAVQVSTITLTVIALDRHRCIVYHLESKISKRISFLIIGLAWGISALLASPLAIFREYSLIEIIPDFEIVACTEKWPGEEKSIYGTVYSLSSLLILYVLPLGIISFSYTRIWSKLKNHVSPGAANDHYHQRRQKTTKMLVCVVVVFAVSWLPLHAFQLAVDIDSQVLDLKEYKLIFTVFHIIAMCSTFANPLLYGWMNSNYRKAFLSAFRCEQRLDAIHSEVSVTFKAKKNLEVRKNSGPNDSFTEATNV
Chain of Genome polyprotein (P29990 2492-3391 limits assumed): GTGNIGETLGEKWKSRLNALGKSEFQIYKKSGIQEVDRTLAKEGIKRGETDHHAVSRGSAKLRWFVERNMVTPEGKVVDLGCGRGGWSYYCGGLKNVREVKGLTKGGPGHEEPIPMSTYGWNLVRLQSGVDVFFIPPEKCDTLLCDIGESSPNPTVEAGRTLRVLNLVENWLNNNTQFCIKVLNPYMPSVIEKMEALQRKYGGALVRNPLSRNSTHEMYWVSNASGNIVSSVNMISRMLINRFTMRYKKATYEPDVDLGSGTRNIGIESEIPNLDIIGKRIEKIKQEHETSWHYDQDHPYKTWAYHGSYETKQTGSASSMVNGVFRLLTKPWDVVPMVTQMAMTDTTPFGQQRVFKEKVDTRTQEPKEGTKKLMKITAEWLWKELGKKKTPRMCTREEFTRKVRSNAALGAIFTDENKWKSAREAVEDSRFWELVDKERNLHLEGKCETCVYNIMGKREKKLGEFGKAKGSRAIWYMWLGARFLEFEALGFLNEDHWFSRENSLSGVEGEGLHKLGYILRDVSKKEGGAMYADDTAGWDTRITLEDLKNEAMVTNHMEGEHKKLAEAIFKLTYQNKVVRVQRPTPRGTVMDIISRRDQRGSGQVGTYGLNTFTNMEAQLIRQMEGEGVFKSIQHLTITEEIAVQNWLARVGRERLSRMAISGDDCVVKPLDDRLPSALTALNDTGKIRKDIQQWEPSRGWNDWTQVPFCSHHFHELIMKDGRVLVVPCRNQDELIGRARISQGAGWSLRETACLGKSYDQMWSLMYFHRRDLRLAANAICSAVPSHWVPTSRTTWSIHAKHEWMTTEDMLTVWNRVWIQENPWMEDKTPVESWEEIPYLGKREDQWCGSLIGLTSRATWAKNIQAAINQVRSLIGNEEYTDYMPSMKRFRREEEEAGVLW
Chain of Neuropeptide Y receptor type 1 (P25929 whole entry): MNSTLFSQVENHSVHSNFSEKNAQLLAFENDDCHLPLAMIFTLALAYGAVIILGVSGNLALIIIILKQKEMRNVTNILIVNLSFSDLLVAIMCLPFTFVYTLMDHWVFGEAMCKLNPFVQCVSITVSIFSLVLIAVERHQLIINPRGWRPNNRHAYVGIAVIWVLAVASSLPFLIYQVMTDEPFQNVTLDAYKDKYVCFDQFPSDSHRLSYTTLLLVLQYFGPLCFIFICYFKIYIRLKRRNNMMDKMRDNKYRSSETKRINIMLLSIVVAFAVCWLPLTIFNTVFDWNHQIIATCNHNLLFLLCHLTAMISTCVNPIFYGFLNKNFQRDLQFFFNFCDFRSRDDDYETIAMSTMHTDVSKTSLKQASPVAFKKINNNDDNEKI

Which results are given for `CN1C(=O)C2(OCC(COc3ccc(Cl)cc3)O2)c2ccccc21` (configuration not stated)?
EC50 [1]: > 20 µM (not active); EC50 [2]: > 20 µM (not active)

Which results are given for `Cn1c(/N=C/c2c(O)ccc3ccccc23)nc2ccccc21`?
IC50 [3]: > 50 µM (not active); IC50 [4]: 14.8 µM (active); AC50 [5]: 7.16 µM (active); EC50 (Protein RecA): 5.19 µM (active); IC50 (Genome polyprotein): 9.6 µM (active)

For `CN1CCN(CCCN2c3ccccc3Sc3ccc(C(F)(F)F)cc32)CC1`, which EC50 [1] is on record?
The EC50 was 11.9 µM (active).

What about the EC50 [2] of the same compound?
The EC50 was 7.72 µM (active).

What about the EC50 [6] of the same compound?
The EC50 was 11.9 µM (active).

And the EC50 [7]?
The EC50 was 11.7 µM (active).

What about the IC50 [8] of the same compound?
The IC50 was > 20 µM (inactive).

What about the IC50 [9] of the same compound?
The IC50 was 2.72 µM (active).

What about the IC50 [10] of the same compound?
The IC50 was 565 nM (active).

What about the IC50 [11] of the same compound?
The IC50 was 7.22 µM (inactive).

What about the IC50 [12] of the same compound?
Its IC50 is 2.63 µM (active).

What about the IC50 [13] of the same compound?
Its IC50 is > 40 µM (inactive).

What about the IC50 [14] of the same compound?
The IC50 was 2.36 µM (active).

What about the IC50 [15] of the same compound?
Its IC50 is 2.81 µM (active).

And the IC50 [16]?
The IC50 was 7.35 µM (inactive).

And the IC50 [17]?
Its IC50 is 3.23 µM (active).

What about the IC50 [18] of the same compound?
The IC50 was > 40 µM (inactive).

For `CC(=O)OC1CC[C@]2(C#N)[C@H]3CC[C@]4(C)[C@H](C5C=CC(=O)O5)CCC4(O)C3CCC2(O)C1` (some centres not stated), which CC50 (Vero [19]) is on record?
Its CC50 is 13.5 µM (active).

What about the CC50 (Vero [20]) of the same compound?
Its CC50 is 18.5 µM (active).

For `Fc1ccccc1NC(=S)N/N=C/c1ccccc1Br`, which EC50 [21] is on record?
The EC50 was 578 nM (active).

What about the EC50 [22] of the same compound?
Its EC50 is 219 nM (active).

What about the EC50 [23] of the same compound?
Its EC50 is < 100 nM (active).

And the EC50 (H4)?
The EC50 was > 120 µM (not active).

What about the EC50 [24] of the same compound?
The EC50 was 376 nM (active).

What about the EC50 [25] of the same compound?
Its EC50 is 5.76 µM (active).

Which EC50 [21] does the source give for `CCCCSc1nc2c(cnn2-c2ccccc2)c(=O)n1N` here?
The EC50 was 348 nM (active).

And the EC50 [23]?
The EC50 was < 100 nM (active).

What about the EC50 (H4) of the same compound?
Its EC50 is > 120 µM (not active).

And the EC50 [24]?
The EC50 was 347 nM (active).

What about the EC50 [25] of the same compound?
Its EC50 is 0.646 µM (active).

With `Cc1cc(Cl)c(OCCCNCc2ccccc2)c(Br)c1` as the compound, how does the IC50 [26] read?
Its IC50 is 5.39 µM (active).

And the EC50 [27]?
Its EC50 is 1.86 µM (active).

And the IC50 [28]?
Its IC50 is 5.15 µM (active).

And the EC50 [6]?
The EC50 was 21.9 µM (active).

And the EC50 [29]?
Its EC50 is 14.3 µM (active).

And the EC50 [7]?
The EC50 was 16.5 µM (active).

And the IC50 [30]?
The IC50 was > 96.6 µM (inactive).

From ChEMBL document CHEMBL1201862, “PubChem BioAssay data set” (2004)
